Assay results as given in patent publication US8563253B2, “Means and method for diagnosing hemolytic anemia” (priority 2006, dated 2013).

Test system: rats
Experiment: Plasma metabolite profiling (GC-MS/LC-MS) of rats treated with aniline; biomarkers for aniline-inducible hemolytic anemia
Assay type: in vivo, rat
Procedure: A group of each 5 male and female rats was dosed once daily with aniline at 10 and 100 mg/kg body weight per gavage over 28 days. Additional groups of each 5 male and female animals served as controls. Before starting the treatment period, animals, which were 62-64 days old when supplied, were acclimatized to the housing and environmental conditions for 7 days. All animals of the animal population were kept under the same constant temperature (20-24±3° C.) and the same constant humidity (30-70%). Each animal of the animal population was kept in a separate cage. The animals of the animal population are fed ad libitum. The food to be used was be essentially free of chemical or microbial contaminants. Drinking water was also offered ad libitum. Accordingly, the water was be free of chemical and microbial contaminants as laid down in the European Drinking Water Directive 98/83/EG. The illumination period was 12 hours light followed by 12 hours darkness (12 hours light, from 6:00 to 18:00, and 12 hours darkness, from 18:00 to 6:00).
In the morning of day 7, 14, and 28, blood was taken from the retroorbital venous plexus from fasted anaesthetized animals. From each animal, 1 ml of blood was collected with EDTA as anticoagulant. The samples were be centrifuged for generation of plasma. All plasma samples were covered with a N2 atmosphere and then stored at −80° C. until analysis.
For mass spectrometry-based metabolite profiling analyses plasma samples were extracted and a polar and a non-polar fraction was obtained. For GC-MS analysis, the non-polar fraction was hydrolyzed under acidic conditions to yield the fatty acid methyl esters. Both fractions were further derivatised with a silylating agent before analysis. In LC-MS analysis, both fractions were reconstituted in appropriate solvent mixtures. HPLC was performed by gradient elution on reversed phase separation columns. For mass spectrometric detection metanomics proprietary technology was applied which allows target and high sensitivity MRM (Multiple Reaction Monitoring) profiling in parallel to a full screen analysis. […] Moreover, several hundred further analytes giving a fingerprint of the sample are included in the methods.
Following comprehensive analytical validation steps, the data for each analyte were normalized against data from pool samples. These samples were run in parallel through the whole process to account for process variability. The significance of treatment group values specific for sex, dose group and metabolite was determined by comparing means of the treated groups to the means of the respective untreated control groups using Student's t-test. Normalized treatment group values and their significance were fed into a database for further statistics and data mining processes.
The changes of the group of plasma metabolites being indicative for hemolytic anemia after treatment of rats with aniline are shown in the following table: […]

[1] = female rats, day 7, 100 mg/kg body weight/day by gavage
[2] = female rats, day 14, 100 mg/kg body weight/day by gavage
[3] = female rats, day 28, 100 mg/kg body weight/day by gavage
[4] = male and female rats, 100 mg/kg body weight/day by gavage for 28 days
[5] = male rats, day 7, 100 mg/kg body weight/day by gavage
[6] = male rats, day 14, 100 mg/kg body weight/day by gavage
[7] = male rats, day 28, 100 mg/kg body weight/day by gavage

`Nc1ccccc1` [aniline] was tested, and the “11-desoxycortisol, fold change against controls” value (“11-desoxycortisol, fold change” below) [1] was 0.39 fold, the “18-hydroxycorticosterone, fold change against controls” value (from here on “18-hydroxycorticosterone, fold change”) [1] was 0.43 fold and the “cytosine, fold change against controls” value [1] was 1.81 fold. For the same compound, the “ribal (1,4-anhydro-2-deoxy-D-erythro-pent-1-enitol) (=MetID 407), fold change against controls” value (from here on “ribal … fold change against controls”) [1] was 1.79 fold, the “11-desoxycortisol, fold change” value [2] was 0.71 fold and the “18-hydroxycorticosterone, fold change” value [2] was 0.71 fold. For the same compound, the “cytosine, fold change against controls” value [2] was 1.18 fold, the “ribal … fold change against controls” value [2] was 1.66 fold and the “11-desoxycortisol, fold change” value [3] was 0.41 fold. The “18-hydroxycorticosterone, fold change” value [3] was 0.47 fold, the “cytosine, fold change against controls” value [3] was 1.38 fold and the “ribal … fold change against controls” value [3] was 1.59 fold. For the same compound, the “Regulation of 11-desoxycortisol” value [4] was “down”, the “Regulation of 18-hydroxycorticosterone” value [4] was “down” and the Regulation of cytosine [4] was “up”. The “Regulation of ribal (1,4-anhydro-2-deoxy-D-erythro-pent-1-enitol) (=MetID 407)” value [4] was “up”, the “11-desoxycortisol, fold change” value [5] was 0.47 fold and the “18-hydroxycorticosterone, fold change” value [5] was 0.34 fold. For the same compound, the “cytosine, fold change against controls” value [5] was 1.50 fold, the “ribal … fold change against controls” value [5] was 1.68 fold and the “11-desoxycortisol, fold change” value [6] was 0.48 fold. The “18-hydroxycorticosterone, fold change” value [6] was 0.33 fold, the “cytosine, fold change against controls” value [6] was 1.17 fold and the “ribal … fold change against controls” value [6] was 1.42 fold. The “11-desoxycortisol, fold change” value [7] was 0.27 fold, the “18-hydroxycorticosterone, fold change” value [7] was 0.18 fold and the “cytosine, fold change against controls” value [7] was 1.71 fold. For the same compound, the “ribal … fold change against controls” value [7] was 1.82 fold.
